Assay results taken from ChEMBL document CHEMBL4673385, “Discovery of Potent Inhibitors of Streptococcus mutans Biofilm with Antivirulence Activity” (ACS Med Chem Lett, 2021).
Activity calls are given as the source filed them. The calls are words filed in the database; no cut-off is given here.

Columns and labels:
[1] = biological target: T1, Glucosyltransferase-SI (Streptococcus mutans serotype c (strain ATCC 700610 / UA159)) (UniProt P13470); test: Inhibition of GtfC in Streptococcus mutans UA159 assessed as reduction in glucans level by Coomassie blue dye based SDS-PAGE analysis
T1 sequence (whole entry): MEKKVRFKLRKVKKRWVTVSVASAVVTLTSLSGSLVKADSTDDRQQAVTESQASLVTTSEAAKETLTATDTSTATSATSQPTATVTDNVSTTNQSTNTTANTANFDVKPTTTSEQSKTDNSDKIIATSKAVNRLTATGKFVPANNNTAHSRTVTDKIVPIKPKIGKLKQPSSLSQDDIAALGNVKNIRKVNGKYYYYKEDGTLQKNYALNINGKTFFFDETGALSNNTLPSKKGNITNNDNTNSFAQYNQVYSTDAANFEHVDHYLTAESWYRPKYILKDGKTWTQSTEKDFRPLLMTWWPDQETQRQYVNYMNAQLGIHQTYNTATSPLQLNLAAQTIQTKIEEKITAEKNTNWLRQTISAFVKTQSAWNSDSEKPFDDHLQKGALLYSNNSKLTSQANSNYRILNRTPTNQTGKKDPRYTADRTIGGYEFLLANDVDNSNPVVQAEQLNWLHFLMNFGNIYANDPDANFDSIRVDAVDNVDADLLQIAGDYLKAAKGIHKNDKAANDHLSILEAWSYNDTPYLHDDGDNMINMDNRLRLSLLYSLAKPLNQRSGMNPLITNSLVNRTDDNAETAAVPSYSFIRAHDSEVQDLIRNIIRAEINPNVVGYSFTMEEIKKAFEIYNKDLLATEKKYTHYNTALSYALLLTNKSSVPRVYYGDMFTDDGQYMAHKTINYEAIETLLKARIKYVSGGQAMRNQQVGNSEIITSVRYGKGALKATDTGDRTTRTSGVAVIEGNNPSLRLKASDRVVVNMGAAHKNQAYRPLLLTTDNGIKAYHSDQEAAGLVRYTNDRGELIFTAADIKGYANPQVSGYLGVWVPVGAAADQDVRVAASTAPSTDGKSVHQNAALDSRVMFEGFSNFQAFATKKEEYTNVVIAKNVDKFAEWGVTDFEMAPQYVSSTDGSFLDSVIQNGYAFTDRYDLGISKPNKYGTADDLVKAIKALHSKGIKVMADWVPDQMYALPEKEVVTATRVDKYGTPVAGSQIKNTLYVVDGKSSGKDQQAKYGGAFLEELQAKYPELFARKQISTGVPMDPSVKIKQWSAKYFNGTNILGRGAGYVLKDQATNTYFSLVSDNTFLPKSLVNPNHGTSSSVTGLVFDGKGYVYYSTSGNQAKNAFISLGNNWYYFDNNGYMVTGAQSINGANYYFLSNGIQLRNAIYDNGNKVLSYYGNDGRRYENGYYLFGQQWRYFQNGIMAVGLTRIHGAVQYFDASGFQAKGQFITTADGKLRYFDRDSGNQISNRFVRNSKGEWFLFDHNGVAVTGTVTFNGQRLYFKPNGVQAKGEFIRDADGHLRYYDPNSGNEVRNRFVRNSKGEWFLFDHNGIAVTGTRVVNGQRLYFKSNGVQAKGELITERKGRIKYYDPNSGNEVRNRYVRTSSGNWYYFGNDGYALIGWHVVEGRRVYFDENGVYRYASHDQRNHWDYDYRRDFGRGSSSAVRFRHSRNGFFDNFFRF

[2] = biological target: T2, Glucosyltransferase-S (Streptococcus mutans serotype c (strain ATCC 700610 / UA159)) (UniProt P49331); test: Inhibition of GtfD in Streptococcus mutans UA159 assessed as reduction in glucans level by Coomassie blue dye based SDS-PAGE analysis
T2 sequence (whole entry): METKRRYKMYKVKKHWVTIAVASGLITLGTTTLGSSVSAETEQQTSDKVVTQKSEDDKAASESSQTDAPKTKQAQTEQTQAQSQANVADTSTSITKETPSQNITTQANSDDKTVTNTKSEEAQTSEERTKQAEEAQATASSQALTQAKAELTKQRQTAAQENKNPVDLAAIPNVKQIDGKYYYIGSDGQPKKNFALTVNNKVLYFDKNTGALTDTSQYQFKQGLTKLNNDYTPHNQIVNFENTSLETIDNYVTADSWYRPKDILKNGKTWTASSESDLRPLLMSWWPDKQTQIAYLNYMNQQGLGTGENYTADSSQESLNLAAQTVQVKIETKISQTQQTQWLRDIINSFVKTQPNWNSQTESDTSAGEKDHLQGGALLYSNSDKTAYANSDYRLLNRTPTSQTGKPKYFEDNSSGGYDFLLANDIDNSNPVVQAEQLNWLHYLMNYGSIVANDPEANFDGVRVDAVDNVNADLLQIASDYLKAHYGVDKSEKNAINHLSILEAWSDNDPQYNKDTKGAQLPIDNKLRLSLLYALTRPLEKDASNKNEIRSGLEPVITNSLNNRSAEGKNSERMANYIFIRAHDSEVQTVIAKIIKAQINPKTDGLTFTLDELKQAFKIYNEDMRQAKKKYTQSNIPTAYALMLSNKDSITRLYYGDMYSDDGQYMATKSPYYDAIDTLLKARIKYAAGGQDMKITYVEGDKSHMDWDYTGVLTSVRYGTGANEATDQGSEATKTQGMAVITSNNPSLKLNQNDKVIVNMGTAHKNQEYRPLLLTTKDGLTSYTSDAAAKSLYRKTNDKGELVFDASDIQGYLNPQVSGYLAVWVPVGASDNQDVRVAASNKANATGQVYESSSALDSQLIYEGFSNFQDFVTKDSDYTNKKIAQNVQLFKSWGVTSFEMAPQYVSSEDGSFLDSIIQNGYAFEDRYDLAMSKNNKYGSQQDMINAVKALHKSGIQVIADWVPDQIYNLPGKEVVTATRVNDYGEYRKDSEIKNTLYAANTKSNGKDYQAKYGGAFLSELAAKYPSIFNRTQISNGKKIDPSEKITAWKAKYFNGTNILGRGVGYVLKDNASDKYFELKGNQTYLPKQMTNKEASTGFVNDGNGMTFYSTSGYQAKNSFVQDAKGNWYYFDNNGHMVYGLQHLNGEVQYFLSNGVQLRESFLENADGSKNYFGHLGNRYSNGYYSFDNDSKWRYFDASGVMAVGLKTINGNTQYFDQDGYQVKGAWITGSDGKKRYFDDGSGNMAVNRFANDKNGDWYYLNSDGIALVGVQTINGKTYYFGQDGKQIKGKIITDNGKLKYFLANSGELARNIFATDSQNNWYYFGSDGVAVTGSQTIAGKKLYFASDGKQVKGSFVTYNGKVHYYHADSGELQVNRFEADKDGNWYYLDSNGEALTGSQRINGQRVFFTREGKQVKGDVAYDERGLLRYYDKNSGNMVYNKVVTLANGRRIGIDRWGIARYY

Row | inhibition [1] | inhibition [2] | SMILES
1 | Active | Active | NC(=O)c1ccccc1NC(=O)c1cc2cc([N+](=O)[O-])ccc2s1
2 | Active | Active | COC(=O)c1ccc(NC(=O)c2cc3cc([N+](=O)[O-])ccc3s2)cc1

Continued, compound first:

Row | SMILES | inhibition [1] | inhibition [2]
3 | NC(=O)c1cccc(NC(=O)c2cnc3ccccc3c2)c1 | Active | Active
4 | CC(C)(C)OC(=O)NCc1ccccc1NC(=O)c1cnc2ccccc2c1 | Active | Active
5 | O=C(c1ccc(F)cc1)c1ccc(-c2[nH]c(-c3ccc([N+](=O)[O-])cc3O)nc2-c2ccccc2)cc1 | Active | Active
6 | NC(=O)c1ccccc1NC(=O)c1cnc2ccccc2c1 | Active | Active
7 | CC(C)(C)OC(=O)NCc1ccccc1NC(=O)c1cc2cc([N+](=O)[O-])ccc2s1 | Active | Active
